Experiment: xn = mol fraction of the nth substance listed
Details: 100 kPa, Liquid; for viscosity: Concentric cylinders viscometry; for mass density: Vibrating tube method

CCCC[n+]1ccn(C)c1.O=S(=O)([N-]S(=O)(=O)C(F)(F)F)C(F)(F)F + CCCCn1cc[n+](C)c1.F[B-](F)(F)F
Details | mass density, x1 = 0.25 [kg/m3] | mass density, x1 = 0.498 [kg/m3] | mass density, x1 = 0.751 [kg/m3] | mass density, x1 = 1 [kg/m3] | viscosity, x1 = 0.25 [mPa·s] | viscosity, x1 = 0.498 [mPa·s] | viscosity, x1 = 0.751 [mPa·s] | viscosity, x1 = 1 [mPa·s]
283.15 K | 1291.2 | 1355.8 | 1409.1 | 1451.8 | 200.83 | 158.06 | 127.96 | 106.77
288.15 K | 1287.1 | 1351.4 | 1404.4 | 1446.9 | 149.79 | 119.67 | 97.87 | 82.16
293.15 K | 1283.1 | 1347.1 | 1399.8 | 1442.1 | 114.12 | 92.47 | 76.33 | 64.53
298.15 K | 1279.1 | 1342.8 | 1395.1 | 1437.2 | 88.56 | 72.77 | 60.64 | 51.6
303.15 K | 1275.1 | 1338.5 | 1390.5 | 1432.4 | 69.91 | 58.24 | 48.97 | 41.93
308.15 K | 1271.2 | 1334.2 | 1386 | 1427.6 | 56.12 | 47.31 | 40.14 | 34.59
313.15 K | 1267.3 | 1329.9 | 1381.5 | 1422.8 | 45.7 | 38.96 | 33.35 | 28.91
318.15 K | 1263.4 | 1325.7 | 1376.9 | 1418.1 | 37.72 | 32.48 | 28.05 | 24.46
323.15 K | 1259.5 | 1321.4 | 1372.4 | 1413.4 | 31.52 | 27.36 | 23.85 | 20.91
328.15 K | 1255.6 | 1317.2 | 1368 | 1408.7 | 26.63 | 23.29 | 20.48 | 18.05
333.15 K | 1251.8 | 1313.1 | 1363.5 | 1404 | 22.71 | 20.02 | 17.75 | 15.72
338.15 K | 1248 | 1308.9 | 1359.1 | 1399.3 | 19.58 | 17.36 | 15.51 | 13.8
343.15 K | 1244.2 | 1304.8 | 1354.8 | 1394.7 | 17.02 | 15.19 | 13.66 | 12.2
348.15 K | 1240.4 | 1300.7 | 1350.4 | 1390.1 | 14.91 | 13.38 | 12.11 | 10.86
353.15 K | 1236.7 | 1296.6 | 1346 | 1385.5 | 13.15 | 11.84 | 10.81 | 9.72
358.15 K | 1233 | 1292.6 | 1341.7 | 1381 | 11.66 | 10.55 | 9.688 | 8.754
363.15 K | 1229.3 | 1288.6 | 1337.5 | 1376.4 | 10.42 | 9.467 | 8.733 | 7.926

CCCCn1cc[n+](C)c1.COP(=O)([O-])OC [1-butyl-3-methyl-1H-imidazolium dimethylphosphate] + CCCC[n+]1ccn(C)c1.O=S(=O)([N-]S(=O)(=O)C(F)(F)F)C(F)(F)F
Details | mass density, x2 = 0 [kg/m3] | mass density, x2 = 0.25 [kg/m3] | mass density, x2 = 0.501 [kg/m3] | mass density, x2 = 0.747 [kg/m3] | viscosity, x2 = 0 [mPa·s] | viscosity, x2 = 0.25 [mPa·s] | viscosity, x2 = 0.501 [mPa·s] | viscosity, x2 = 0.747 [mPa·s]
283.15 K | 1168.4 | 1251 | 1325.1 | 1390.6 | 2315.6 | 1433.7 | 630.61 | 251.51
288.15 K | 1164.9 | 1247 | 1320.6 | 1386 | 1454.6 | 930.25 | 433.3 | 183.6
293.15 K | 1161.4 | 1243.1 | 1316.2 | 1381.5 | 943.97 | 618.01 | 301.49 | 137.3
298.15 K | 1157.9 | 1239.1 | 1312 | 1377 | 641.71 | 432.55 | 222.26 | 104.86
303.15 K | 1154.3 | 1235.2 | 1307.8 | 1372.5 | 446.92 | 307.85 | 165.15 | 81.71
308.15 K | 1150.9 | 1231.4 | 1303.7 | 1368.1 | 319.33 | 224.53 | 125.35 | 64.81
313.15 K | 1147.6 | 1227.7 | 1299.7 | 1363.6 | 232.1 | 166.25 | 96.27 | 52.46
318.15 K | 1144.3 | 1224.1 | 1295.6 | 1359.2 | 174.7 | 127.53 | 76.39 | 42.72
323.15 K | 1141 | 1220.4 | 1291.6 | 1354.8 | 133.37 | 98.92 | 61.14 | 35.4
328.15 K | 1137.8 | 1216.8 | 1287.6 | 1350.4 | 103.62 | 78.04 | 49.65 | 29.69
333.15 K | 1134.6 | 1213.2 | 1283.5 | 1346 | 81.97 | 62.7 | 41.07 | 25.42
338.15 K | 1131.4 | 1209.7 | 1279.5 | 1341.7 | 65.62 | 50.83 | 34.05 | 21.56
343.15 K | 1128.3 | 1206.1 | 1275.6 | 1337.4 | 53.39 | 41.87 | 28.69 | 18.63
348.15 K | 1125.1 | 1202.5 | 1271.6 | 1333.1 | 44.01 | 34.9 | 24.42 | 16.23
353.15 K | 1122 | 1199 | 1267.7 | 1328.8 | 37.08 | 29.8 | 21.36 | 14.57
358.15 K | 1118.9 | 1195.5 | 1263.7 | 1324.6 | 30.94 | 25.03 | 18.18 | 12.61
363.15 K | 1115.7 | 1192 | 1259.9 | 1320.4 | 26.33 | 21.5 | 15.88 | 11.22
